#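 Protocol summary: plate cells (96-well), add compound at 5 concentrations, incubate 48 h, interpolate endpoints linearly. GI50 is the concentration that inhibits growth by half.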 Calls of active or inactive are those of the source. No stated cut-off is given here; in the data, active = GI50 up to about 1.1 µM and inactive = higher.
# Assays:
# Assay in all cases: inhibition of tumour cell growth, NCI panel, 48 h
# [1] = tested on: 786-0
# [2] = tested on: A498
# [3] = tested on: A549
# [4] = tested on: ACHN
# [5] = tested on: CAKI-1
# [6] = tested on: CCRF-CEM
# [7] = tested on: COLO 205
# [8] = tested on: DLD-1
# [9] = tested on: DMS-114
# [10] = tested on: DMS-273
# [11] = tested on: EKVX
# [12] = tested on: HCC 2998
# [13] = tested on: HCT-116
# [14] = tested on: HCT-15
# [15] = tested on: HL-60
# [16] = tested on: HOP-18
# [17] = tested on: HOP-62
# [18] = tested on: HOP-92
# [19] = tested on: HT-29
# [20] = tested on: IGROV-1
# [21] = tested on: K562
# [22] = tested on: KM-20L2
# [23] = tested on: KM12
# [24] = tested on: LOX IMVI
# [25] = tested on: LXFL 529
# [26] = tested on: M14
# [27] = tested on: M19-MEL
# [28] = tested on: MOLT-4
# [29] = tested on: Malme-3M
# [30] = tested on: NCI-H226
# [31] = tested on: NCI-H23
# [32] = tested on: NCI-H460
# [33] = tested on: NCI-H522
# [34] = tested on: OVCAR-3
# [35] = tested on: OVCAR-4
# [36] = tested on: OVCAR-8
# [37] = tested on: RXF 393
# [38] = tested on: SF-268
# [39] = tested on: SF-295
# [40] = tested on: SF-539
# [41] = tested on: SK-MEL-28
# [42] = tested on: SK-MEL-2
# [43] = tested on: SK-MEL-5
# [44] = tested on: SK-OV-3
# [45] = tested on: SN12C
# [46] = tested on: SNB-19
# [47] = tested on: SNB-75
# [48] = tested on: SR
# [49] = tested on: SW-620
# [50] = tested on: TK-10
# [51] = tested on: U-251
# [52] = tested on: UACC-257
# [53] = tested on: UACC-62
# [54] = tested on: UO-31
# [55] = tested on: OVCAR-5
# [56] = tested on: RPMI-8226
# [57] = tested on: SNB-78
# [58] = tested on: XF498
structure (smiles),measurement,setting,value
COC(=O)c1ccc(NC(=O)c2cc(OC)c(OC)c(OC)c2)cc1,GI50,[1],0.859 µM (active)
same,GI50,[2],3.44 µM (inactive)
same,GI50,[3],3.38 µM (inactive)
same,GI50,[4],2.71 µM (inactive)
same,GI50,[5],2.16 µM (inactive)
same,GI50,[6],3.73 µM (inactive)
same,GI50,[7],0.211 µM (active)
same,GI50,[8],4.69 µM (inactive)
same,GI50,[9],0.305 µM (active)
same,GI50,[10],0.327 µM (active)
same,GI50,[11],38.4 µM (inactive)
same,GI50,[12],1.99 µM (inactive)
same,GI50,[13],0.948 µM (active)
same,GI50,[14],1.08 µM
same,GI50,[15],2.09 µM (inactive)
same,GI50,[16],49.4 µM (inactive)
same,GI50,[17],7.6 µM (inactive)
same,GI50,[18],6.65 µM (inactive)
same,GI50,[19],1.35 µM (inactive)
same,GI50,[20],3.17 µM (inactive)
same,GI50,[21],1.97 µM (inactive)
same,GI50,[22],1.44 µM (inactive)
same,GI50,[23],1.02 µM (active)
same,GI50,[24],9.31 µM (inactive)
same,GI50,[25],1.64 µM (inactive)
same,GI50,[26],4.28 µM (inactive)
same,GI50,[27],1.04 µM (active)
same,GI50,[28],3.93 µM (inactive)
same,GI50,[29],0.644 µM (active)
same,GI50,[30],2.54 µM (inactive)
same,GI50,[31],0.0279 µM (active)
same,GI50,[32],2.23 µM (inactive)
same,GI50,[33],0.836 µM (active)
same,GI50,[34],1.08 µM (active)
same,GI50,[35],18.9 µM (inactive)
same,GI50,[36],12.2 µM (inactive)
same,GI50,[37],39.4 µM (inactive)
same,GI50,[38],8.05 µM (inactive)
same,GI50,[39],0.8 µM (active)
same,GI50,[40],1.21 µM (inactive)
same,GI50,[41],0.798 µM (active)
same,GI50,[42],0.798 µM (active)
same,GI50,[43],0.195 µM (active)
same,GI50,[44],11.3 µM (inactive)
same,GI50,[45],1.85 µM (inactive)
same,GI50,[46],1 µM (active)
same,GI50,[47],42.1 µM (inactive)
same,GI50,[48],1.36 µM (inactive)
same,GI50,[49],0.955 µM (active)
same,GI50,[50],2.34 µM (inactive)
same,GI50,[51],0.236 µM (active)
same,GI50,[52],0.0215 µM (active)
same,GI50,[53],1.09 µM (active)
same,GI50,[54],2.05 µM (inactive)
Cc1cc(NS(=O)(=O)c2ccc(Nc3c4ccccc4nc4c(C(=O)N5CCN(CCOS(C)(=O)=O)CC5)cccc34)cc2)no1,GI50,[1],> 100 µM (inactive)
same,GI50,[2],> 100 µM (inactive)
same,GI50,[3],> 100 µM (inactive)
same,GI50,[4],> 100 µM (inactive)
same,GI50,[5],> 100 µM (inactive)
same,GI50,[6],43.4 µM (inactive)
same,GI50,[7],> 100 µM (inactive)
same,GI50,[8],> 100 µM (inactive)
same,GI50,[9],> 100 µM (inactive)
same,GI50,[10],> 100 µM (inactive)
same,GI50,[12],> 100 µM (inactive)
same,GI50,[13],> 100 µM (inactive)
same,GI50,[14],> 100 µM
same,GI50,[15],> 100 µM (inactive)
same,GI50,[17],> 100 µM (inactive)
same,GI50,[18],> 100 µM (inactive)
same,GI50,[19],> 100 µM (inactive)
same,GI50,[20],> 100 µM (inactive)
same,GI50,[21],37.5 µM (inactive)
same,GI50,[22],> 100 µM (inactive)
same,GI50,[23],> 100 µM (inactive)
same,GI50,[26],> 100 µM (inactive)
same,GI50,[27],> 100 µM (inactive)
same,GI50,[28],54.1 µM (inactive)
same,GI50,[29],> 100 µM (inactive)
same,GI50,[30],> 100 µM (inactive)
same,GI50,[31],> 100 µM (inactive)
same,GI50,[32],> 100 µM (inactive)
same,GI50,[34],> 100 µM (inactive)
same,GI50,[35],> 100 µM (inactive)
same,GI50,[55],> 100 µM (inactive)
same,GI50,[36],> 100 µM (inactive)
same,GI50,[56],> 100 µM (inactive)
same,GI50,[37],> 100 µM (inactive)
same,GI50,[38],> 100 µM (inactive)
same,GI50,[39],> 100 µM (inactive)
same,GI50,[40],> 100 µM (inactive)
same,GI50,[41],> 100 µM (inactive)
same,GI50,[42],> 100 µM (inactive)
same,GI50,[43],> 100 µM (inactive)
same,GI50,[44],> 100 µM (inactive)
same,GI50,[45],> 100 µM (inactive)
same,GI50,[46],> 100 µM (inactive)
same,GI50,[47],> 100 µM (inactive)
same,GI50,[57],> 100 µM (inactive)
same,GI50,[50],> 100 µM (inactive)
same,GI50,[51],> 100 µM (inactive)
same,GI50,[52],> 100 µM (inactive)
same,GI50,[53],> 100 µM (inactive)
same,GI50,[54],> 100 µM (inactive)
same,GI50,[58],> 100 µM (inactive)
C=C1COC(/C=C(\C)CC/C=C(\C)CCl)C1 (configuration not stated),GI50,[1],> 100 µM (inactive)
same,GI50,[2],> 100 µM (inactive)
same,GI50,[3],> 100 µM (inactive)
same,GI50,[4],> 100 µM (inactive)
same,GI50,[6],> 100 µM (inactive)
same,GI50,[7],> 100 µM (inactive)
same,GI50,[8],> 100 µM (inactive)
same,GI50,[9],> 100 µM (inactive)
same,GI50,[10],> 100 µM (inactive)
same,GI50,[11],> 100 µM (inactive)
same,GI50,[12],> 100 µM (inactive)
same,GI50,[13],> 100 µM (inactive)
same,GI50,[14],> 100 µM
same,GI50,[15],> 100 µM (inactive)
same,GI50,[17],> 100 µM (inactive)
same,GI50,[18],35.1 µM (inactive)
same,GI50,[19],> 100 µM (inactive)
same,GI50,[20],> 100 µM (inactive)
same,GI50,[21],> 100 µM (inactive)
same,GI50,[22],> 100 µM (inactive)
same,GI50,[23],> 100 µM (inactive)
same,GI50,[24],> 100 µM (inactive)
same,GI50,[25],> 100 µM (inactive)
same,GI50,[26],> 100 µM (inactive)
same,GI50,[27],> 100 µM (inactive)
same,GI50,[28],> 100 µM (inactive)
same,GI50,[30],> 100 µM (inactive)
same,GI50,[31],> 100 µM (inactive)
same,GI50,[32],> 100 µM (inactive)
same,GI50,[33],> 100 µM (inactive)
same,GI50,[34],> 100 µM (inactive)
same,GI50,[35],> 100 µM (inactive)
same,GI50,[55],> 100 µM (inactive)
same,GI50,[36],> 100 µM (inactive)
same,GI50,[56],> 100 µM (inactive)
same,GI50,[37],> 100 µM (inactive)
same,GI50,[38],> 100 µM (inactive)
same,GI50,[39],> 100 µM (inactive)
same,GI50,[40],> 100 µM (inactive)
same,GI50,[41],> 100 µM (inactive)
same,GI50,[42],> 100 µM (inactive)
same,GI50,[43],> 100 µM (inactive)
same,GI50,[44],> 100 µM (inactive)
same,GI50,[45],> 100 µM (inactive)
same,GI50,[46],> 100 µM (inactive)
same,GI50,[47],> 100 µM (inactive)
same,GI50,[57],> 100 µM (inactive)
same,GI50,[49],> 100 µM (inactive)
same,GI50,[50],> 100 µM (inactive)
same,GI50,[51],> 100 µM (inactive)
same,GI50,[53],> 100 µM (inactive)
same,GI50,[54],> 100 µM (inactive)
same,GI50,[58],> 100 µM (inactive)
CCC1=C(C(C)=O)[C@@H]2CCCCC(C(=O)OC)[C@@H]2C1=O (some centres not stated),GI50,[1],> 100 µM (inactive)
same,GI50,[2],> 100 µM (inactive)
same,GI50,[3],> 100 µM (inactive)
same,GI50,[4],> 100 µM (inactive)
same,GI50,[5],> 100 µM (inactive)
same,GI50,[6],> 100 µM (inactive)
same,GI50,[7],> 100 µM (inactive)
same,GI50,[8],> 100 µM (inactive)
same,GI50,[9],> 100 µM (inactive)
same,GI50,[10],> 100 µM (inactive)
same,GI50,[11],> 100 µM (inactive)
same,GI50,[12],> 100 µM (inactive)
same,GI50,[13],> 100 µM (inactive)
same,GI50,[14],> 100 µM
same,GI50,[15],> 100 µM (inactive)
same,GI50,[16],47 µM (inactive)
same,GI50,[17],> 100 µM (inactive)
same,GI50,[18],> 100 µM (inactive)
same,GI50,[19],> 100 µM (inactive)
same,GI50,[20],> 100 µM (inactive)
same,GI50,[21],> 100 µM (inactive)
same,GI50,[22],> 100 µM (inactive)
same,GI50,[23],> 100 µM (inactive)
same,GI50,[25],> 100 µM (inactive)
same,GI50,[26],> 100 µM (inactive)
same,GI50,[27],79.4 µM (inactive)
same,GI50,[28],> 100 µM (inactive)
same,GI50,[29],> 100 µM (inactive)
same,GI50,[30],> 100 µM (inactive)
same,GI50,[31],> 100 µM (inactive)
same,GI50,[32],> 100 µM (inactive)
same,GI50,[33],88.1 µM (inactive)
same,GI50,[35],> 100 µM (inactive)
same,GI50,[55],> 100 µM (inactive)
same,GI50,[36],> 100 µM (inactive)
same,GI50,[56],> 100 µM (inactive)
same,GI50,[37],> 100 µM (inactive)
same,GI50,[38],> 100 µM (inactive)
same,GI50,[39],> 100 µM (inactive)
same,GI50,[40],> 100 µM (inactive)
same,GI50,[41],> 100 µM (inactive)
same,GI50,[42],> 100 µM (inactive)
same,GI50,[43],> 100 µM (inactive)
same,GI50,[44],> 100 µM (inactive)
same,GI50,[45],> 100 µM (inactive)
same,GI50,[46],> 100 µM (inactive)
same,GI50,[47],> 100 µM (inactive)
same,GI50,[57],> 100 µM (inactive)
same,GI50,[49],> 100 µM (inactive)
same,GI50,[50],> 100 µM (inactive)
same,GI50,[51],> 100 µM (inactive)
same,GI50,[52],> 100 µM (inactive)
same,GI50,[53],> 100 µM (inactive)
same,GI50,[54],> 100 µM (inactive)
